Measurements: patent US9573954B2, “Pyrazolopyrimidine compounds” (University Health Network, priority 2012, dated 2017)
Read-outs that look alike come from different tables or passages of the source.

Key:
[1] = system: ovarian cancer cells (OVCAR-3); assay: Cancer cell line growth inhibition, Sulforhodamine B assay, OVCAR-3; type: cell-based; settings: read-out: Cancer Cell Line GI50 Range OVCAR-3
Method: (§1) Breast cancer cells (MDA-MB-231 and MDA-MB-468), colon cancer cells (HCT116) and ovarian cancer cells (PA-1 and OVCAR-3) were seeded (1000 to 4000 in 80 μl per well depending on the cell growth rate) into 96 well plates 24 hours before compound overlay. Compounds were prepared as 10 mM stock solutions in 100% DMSO which were diluted with DMEM (Dulbecco's Modified Eagle's Medium) cell growth Medium (Invitrogen, Burlington, ON, Canada) containing 10% FBS (Fetal Bovine Serum) to concentrations ranging from 50 nM to 250 μM. Aliquots (20 μl) from each concentration were overlaid to 80 μl of the pre-seeded cells in the 96 well plates to make final concentrations of 10 nM to 50 μM. The cells were cultured for 5 days before the Sulforhodamine B assay (SRB) was performed to determine the compound's cell growth inhibition activity.
(§2) Sulforhodamine B (purchased from Sigma, Oakville, ON, Canada) is a water-soluble dye that binds to the basic amino acids of the cellular proteins. Thus, colorimetric measurement of the bound dye provides an estimate of the total protein mass that is related to the cell number. the cells are fixed in situ by gently aspirating off the culture media and adding 50 μl ice cold 10% Trichloroacetic Acid (TCA) per well and incubate at 4° C. for 30-60 min, The plates are washed with H2O five times and allowed to air dry for 5 min. Addition of 50 μl 0.4% (w/v) SRB solution in 1% (v/v) acetic acid to each well and incubation for 30 min at RT completes the staining reaction. Following staining, plates are washed four times with 1% acetic acid to remove unbound dye and then allowed to air dry for 5 min. The stain is solubilized with 100 μl of 10 mM Tris pH 10.5 per well. Absorbance is read at 570 nm.
(§3) The percentage (%) of relative growth inhibition was calculated by comparing to DMSO treated only cells (100%). GI50's were determined for compounds with cytotoxic activity. The GI50 was calculated using GraphPad PRISM software (GraphPad Software, Inc., San Diego, Calif., USA).
(§4) In Table 3 below, GI50 value ranges for compound examples against breast cancer cell lines (MDA-MB-468), colon cancer cell lines (HCT116) and ovarian cancer cell lines (OVCAR-3) are given.

[2] = system: breast cancer cells (MDA-MB-468); assay: Cancer cell line growth inhibition, Sulforhodamine B assay, MDA-MB-468; type: cell-based; settings: read-out: Cancer Cell Line GI50 Range MDA-MB-468
Method: as §1, §2, §3
(§5) In Table 1 below, GI50 value ranges for compound examples against breast cancer cell lines (MDA-MB-468), colon cancer cell lines (HCT116) and ovarian cancer cell lines (PA-1) are given.
as §4

[3] = system: colon cancer cells (HCT116); assay: Cancer cell line growth inhibition, Sulforhodamine B assay, HCT116; type: cell-based; settings: read-out: Cancer Cell Line GI50 Range HCT116
Method: as §1, §2, §3, §5
In Table 2 below, GI50 value ranges for compound examples against breast cancer cell lines (MDA-MB-231), colon cancer cell lines (HCT116) and ovarian cancer cell lines (PA-1) are given.
as §4

human TTK = biological target: T1, human TTK (Homo sapiens, UniProt P33981); assay: TTK inhibition assay (indirect ELISA); type: biochemical; settings: 100 μM ATP; read-out: TTK IC50 Range
T1 construct: Active TTK was purchased from Invitrogen as an amino terminal GST fusion of full length human TTK; purchased Invitrogen
T1 sequence (P33981 1-857): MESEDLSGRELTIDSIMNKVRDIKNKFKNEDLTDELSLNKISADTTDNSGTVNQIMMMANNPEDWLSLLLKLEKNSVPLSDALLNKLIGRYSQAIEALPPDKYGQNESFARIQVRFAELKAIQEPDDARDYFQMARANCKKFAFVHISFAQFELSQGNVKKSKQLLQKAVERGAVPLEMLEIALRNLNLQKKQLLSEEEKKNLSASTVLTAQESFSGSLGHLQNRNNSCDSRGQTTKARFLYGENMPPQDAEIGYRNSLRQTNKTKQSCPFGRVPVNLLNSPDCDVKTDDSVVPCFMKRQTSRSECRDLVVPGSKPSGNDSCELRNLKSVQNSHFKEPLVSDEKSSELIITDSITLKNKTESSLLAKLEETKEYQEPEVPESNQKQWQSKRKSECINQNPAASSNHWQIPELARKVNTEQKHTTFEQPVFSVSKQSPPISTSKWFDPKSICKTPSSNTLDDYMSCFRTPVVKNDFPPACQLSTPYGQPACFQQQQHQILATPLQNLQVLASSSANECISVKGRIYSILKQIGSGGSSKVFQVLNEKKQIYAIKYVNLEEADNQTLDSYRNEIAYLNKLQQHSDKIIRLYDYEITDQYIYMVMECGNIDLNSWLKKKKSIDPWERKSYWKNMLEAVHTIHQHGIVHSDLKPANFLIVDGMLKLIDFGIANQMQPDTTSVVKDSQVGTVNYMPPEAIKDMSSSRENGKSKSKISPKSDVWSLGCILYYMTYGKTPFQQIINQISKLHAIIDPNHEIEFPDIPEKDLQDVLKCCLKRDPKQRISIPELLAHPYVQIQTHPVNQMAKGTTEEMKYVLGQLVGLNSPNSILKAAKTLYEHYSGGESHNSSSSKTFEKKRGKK
Method: Active TTK was purchased from Invitrogen as an amino terminal GST fusion of full length human TTK.
TTK activity was measured using an indirect ELISA detection system.
Compounds were pre-incubated in the presence of enzyme for 5 minutes prior to addition of ATP and the activity remaining quantified using the above described activity assay. The % Inhibition of a compound was determined using the following formula; % Inhibition=100×(1−(experimental value−background value)/(high activity control−background value)). The IC50 value was determined using a non-linear 4 point logistic curve fit (XLfit4, IDBS) with the formula; (A+(B/(1+((x/C)^D)))), where A=background value, B=range, C=inflection point, D=curve fit parameter.

[4] = Homo sapiens, OVCAR-3, OVCAR-3 ovarian cancer cell line
[5] = Homo sapiens, MDA-MB-468, MDA-MB-468 breast cancer cell line
[6] = Homo sapiens, HCT-116, HCT116 colon cancer cell line
[7] = OVCAR-3 ovarian cancer cell line
[8] = MDA-MB-468 breast cancer cell line

| GI50 [1, 4] [nM] | GI50 [2, 5] [nM] | GI50 [3, 6] [nM] | IC50 (human TTK) [nM] | GI50 [1, 7] [nM] | GI50 [2, 8] [nM] | GI50 ([3]; HCT116 colon cancer cell line) [nM] | Structure (SMILES) |
| --- | --- | --- | --- | --- | --- | --- | --- |
| ≤ 100 | ≤ 100 | ≤ 100 | < 100 | – | – | – | Cc1cc(-c2cnn3c(NCCCn4ccnc4)cc(Oc4ccccc4)nc23)ccc1C(=O)NC1CC1 [Example C61] |
| 100 to 500 | 100 to 500 | 100 to 500 | < 100 | – | – | – | Cc1cc(-c2cnn3c(NC[C@H]4CCCO4)cc(NC4CCCC4)nc23)ccc1C(=O)NC1CC1 [Example C62] |
| > 500 | 100 to 500 | 100 to 500 | < 100 | – | – | – | Cc1cc(-c2cnn3c(NCC4CCOCC4)cc(NCC4COC4)nc23)ccc1C(=O)NC1CC1 [Example C71] |
| – | – | – | < 100 | 100 to 500 | ≤ 100 | ≤ 100 | Cc1cc(-c2cnn3c(NC[C@H]4CCCO4)cc(NC4CCCC4)nc23)ccc1C(=O)NC1CC1 [Example C72] |
| > 500 | 100 to 500 | 100 to 500 | < 100 | – | – | – | Cc1cc(-c2cnn3c(NCC4CCOCC4)cc(NCc4cccnc4)nc23)ccc1C(=O)NC1CC1 [Example C74] |
| 100 to 500 | 100 to 500 | 100 to 500 | < 100 | – | – | – | Cc1cc(-c2cnn3c(NCCN4CCOCC4)cc(NC4CCCC4)nc23)ccc1C(=O)NC1CC1 [Example C77] |
| 100 to 500 | 100 to 500 | 100 to 500 | < 100 | – | – | – | Cc1cc(-c2cnn3c(NCC4CCOCC4)cc(N[C@H](CO)C(C)(C)C)nc23)ccc1C(=O)NC1CC1 [Example C78] |
| > 500 | > 500 | > 500 | < 100 | – | – | – | Cc1cc(-c2cnn3c(NCC4CCOCC4)cc(N[C@H]4COCC[C@@H]4O)nc23)ccc1C(=O)NC1CC1 [Example C79] |
| 100 to 500 | 100 to 500 | 100 to 500 | < 100 | – | – | – | Cc1cc(-c2cnn3c(NCC4CCOCC4)cc(N[C@@H]4CCCOC4)nc23)ccc1C(=O)NC1CC1 [Example C82] |
| 100 to 500 | 100 to 500 | ≤ 100 | < 100 | – | – | – | Cc1cc(-c2cnn3c(NCC4CCOCC4)cc(N[C@H]4CCCOC4)nc23)ccc1C(=O)NC1CC1 [Example C83] |
| 100 to 500 | 100 to 500 | 100 to 500 | < 100 | – | – | – | COc1cccc(Oc2cc(NCCN3CCOCC3)n3ncc(-c4ccc(C(=O)NC5CC5)c(C)c4)c3n2)c1 [Example C85] |
| > 500 | 100 to 500 | 100 to 500 | < 100 | – | – | – | Cc1cc(-c2cnn3c(NCC4CCOCC4)cc(N4CCOC[C@H]4CO)nc23)ccc1C(=O)NC1CC1 [Example C87] |
| > 500 | 100 to 500 | > 500 | < 100 | – | – | – | Cc1cc(-c2cnn3c(NCC4CCOCC4)cc(NC4(CO)CCOCC4)nc23)ccc1C(=O)NC1CC1 [Example C88] |

Further lines, the compound ahead of its results:

| Structure (SMILES) | GI50 [1, 4] [nM] | GI50 [2, 5] [nM] | GI50 [3, 6] [nM] | IC50 (human TTK) [nM] | GI50 [1, 7] [nM] | GI50 [2, 8] [nM] | GI50 ([3]; HCT116 colon cancer cell line) [nM] |
| --- | --- | --- | --- | --- | --- | --- | --- |
| Cc1cc(-c2cnn3c(NC[C@@H]4CCOC4)cc(N[C@H]4CCCC[C@H]4O)nc23)ccc1C(=O)NC1CC1 [Example C36, N-cyclopropyl-4-(5-(((1S,2R)-2-hydroxycyclohexyl)amino)-7-((((S)-tetrahydrofuran-3-yl)methyl)amino)pyrazolo[1,5-a]pyrimidin-3-yl)-2-methylbenzamide] | ≤ 100 | ≤ 100 | ≤ 100 | < 100 | – | – | – |
| Cc1cc(-c2cnn3c(NC[C@H]4C[C@@](C)(O)C4)cc(NC4CCCC4)nc23)ccc1C(=O)NC1CC1 [Example C44, 4-(5-(cyclopentylamino)-7-((((1s,3s)-3-hydroxy-3-methylcyclobutyl)methyl)amino)pyr-azolo[1,5-a]pyrimidin-3-yl)-N-cyclopropyl-2-methylbenzamide] | ≤ 100 | ≤ 100 | ≤ 100 | < 100 | – | – | – |
| Cc1cc(-c2cnn3c(NCCN4CCC(F)CC4)cc(Oc4cccc(F)c4F)nc23)ccc1C(=O)NC1CC1 [Example C47, N-cyclopropyl-4-(5-(2,3-difluorophenoxy)-7-((2-(4-fluoropiperidin-1-yl)ethyl)amino)pyrazolo[1,5-a]pyrimidin-3-yl)-2-methylbenzamide] | ≤ 100 | ≤ 100 | ≤ 100 | < 100 | – | – | – |
| Cc1cc(-c2cnn3c(NCc4cccnc4)cc(NC4CCOCC4)nc23)ccc1C(=O)NC1CC1 [Example C49] | 100 to 500 | 100 to 500 | 100 to 500 | < 100 | – | – | – |
| Cc1cc(-c2cnn3c(NCCN4CCOCC4)cc(Oc4cccnc4)nc23)ccc1C(=O)NC1CC1 [Example C51] | 100 to 500 | 100 to 500 | 100 to 500 | < 100 | – | – | – |
| Cc1cc(-c2cnn3c(NCc4cccnc4)cc(OC4CCOCC4)nc23)ccc1C(=O)NC1CC1 [Example C52] | > 500 | 100 to 500 | 100 to 500 | < 100 | – | – | – |
| Cc1cc(-c2cnn3c(NCc4ccncc4)cc(NC4CCOCC4)nc23)ccc1C(=O)NC1CC1 [Example C54] | – | – | – | < 100 | 100 to 500 | 100 to 500 | 100 to 500 |
| Cc1cc(-c2cnn3c(NCC4CCOCC4)cc(Oc4cncc(F)c4)nc23)ccc1C(=O)NC1CC1 [Example C56] | ≤ 100 | ≤ 100 | ≤ 100 | < 100 | – | – | – |
| Cc1cc(-c2cnn3c(NCC4CCOCC4)cc(NCC4CCOCC4)nc23)ccc1C(=O)NC1CC1 [Example C57] | 100 to 500 | 100 to 500 | 100 to 500 | < 100 | – | – | – |
| Cc1cc(-c2cnn3c(NCC4CCOCC4)cc(N(C)C4CCCC4)nc23)ccc1C(=O)NC1CC1 [Example C58] | 100 to 500 | 100 to 500 | ≤ 100 | < 100 | – | – | – |
| Cc1cc(-c2cnn3c(NCC4CCOCC4)cc(Nc4cccnc4)nc23)ccc1C(=O)NC1CC1 [Example C59] | 100 to 500 | 100 to 500 | 100 to 500 | < 100 | – | – | – |
| Cc1cc(-c2cnn3c(NCC4CCOCC4)cc(N4C5CCC4CC(O)C5)nc23)ccc1C(=O)NC1CC1 (stereo not shown) [Example C66] | 100 to 500 | 100 to 500 | 100 to 500 | < 100 | – | – | – |
